In ChEMBL document CHEMBL1129898, “An exceptionally potent analog of sandramycin” (Bioorg Med Chem Lett, 1997):

Assays:
Assay type in all cases: functional, cell-based
B16 = assay: The compound was tested in vitro for cytotoxic activity against B-16 cell line (mouse melanoma)
H322 = assay: The compound was tested in vitro for cytotoxic activity against H 322 cell line (human lung adenocarcinoma); settings: NCI-H322
HL-60 = assay: The compound was tested in vitro for cytotoxic activity against HL-60 cell line (human promyelomic leukemia)
HT-29 = assay: The compound was tested in vitro for cytotoxic activity against HT-29 cell line (human colon adenocarcinoma)
L1210 = assay: The compound was tested in vitro for cytotoxic activity against L1210 cell line (mouse leukemia)
[1] = The compound was tested in vitro for cytotoxic activity against M24-MET cell line (human metastatic melanoma); settings: M24met
MCF7 = assay: The compound was tested in vitro for cytotoxic activity against MCF-7 cell line (human breast carcinoma)
MOLT-4 = assay: The compound was tested in vitro for cytotoxic activity against Molt-4 cell line (human T-cell leukemia)
OVCAR-3 = assay: The compound was tested in vitro for cytotoxic activity against OVCAR-3 cell line (human ovarian carcinoma)
PC-3 = assay: The compound was tested in vitro for cytotoxic activity against PC-3 cell line (human prostate carcinoma)
SK-MEL-28 = assay: The compound was tested in vitro for cytotoxic activity against SK-MEL 28 cell line (human melanoma)
SiHa = assay: The compound was tested in vitro for cytotoxic activity against SIHA cell line (human cervix carcinoma)
BT-549 = assay: The compound was tested in vitro for cytotoxic activity against BT-549 cell line (human breast carcinoma)
[2] = The compound was tested in vitro for cytotoxic activity against UCLA-P3 cell line (human lung adenocarcinoma); settings: UCLA P-3
786-0 = assay: The compound was tested in vitro for cytotoxic activity against 786-O cell line (human perirenal carcinoma)

Question: With `CC(C)[C@H]1C(=O)OC[C@@H](NC(=O)c2ccc3ccccc3n2)C(=O)N2CCCC[C@H]2C(=O)NCC(=O)N(C)CC(=O)N(C)[C@@H](C(C)C)C(=O)OC[C@@H](NC(=O)c2ccc3ccccc3n2)C(=O)N2CCCC[C@H]2C(=O)NCC(=O)N(C)CC(=O)N1C` as the compound, how does the IC50 (B16) read?
Answer: Its IC50 is 0.06 nM.

Question: And the IC50 (H322)?
Answer: The IC50 was 10 nM.

Question: And the IC50 (HL-60)?
Answer: Its IC50 is 0.001 nM.

Question: What about the IC50 (HT-29) of the same compound?
Answer: The IC50 was 0.01 nM.

Question: What about the IC50 (L1210) of the same compound?
Answer: The IC50 was 0.2 nM.

Question: What about the IC50 [1] of the same compound?
Answer: The IC50 was 0.04 nM.

Question: What about the IC50 (MCF7) of the same compound?
Answer: Its IC50 is 0.04 nM.

Question: What about the IC50 (MOLT-4) of the same compound?
Answer: The IC50 was 3 nM.

Question: And the IC50 (OVCAR-3)?
Answer: Its IC50 is 1 nM.

Question: And the IC50 (PC-3)?
Answer: Its IC50 is 0.001 nM.

Question: What about the IC50 (SK-MEL-28) of the same compound?
Answer: Its IC50 is 0.001 nM.

Question: And the IC50 (SiHa)?
Answer: The IC50 was 0.001 nM.

Question: What about the IC50 (BT-549) of the same compound?
Answer: Its IC50 is 0.01 nM.

Question: What about the IC50 [2] of the same compound?
Answer: The IC50 was 0.002 nM.

Question: What about the IC50 (786-0) of the same compound?
Answer: The IC50 was 0.01 nM.

Question: Which results are given for `CC(C)[C@H]1C(=O)OC[C@@H](NC(=O)c2nc3ccccc3cc2O)C(=O)N2CCCC[C@H]2C(=O)NCC(=O)N(C)CC(=O)N(C)[C@@H](C(C)C)C(=O)OC[C@@H](NC(=O)c2nc3ccccc3cc2O)C(=O)N2CCCC[C@H]2C(=O)NCC(=O)N(C)CC(=O)N1C`?
Answer: IC50 (B16): 0.4 nM; IC50 (H322): 20 nM; IC50 (HL-60): 80 nM; IC50 (HT-29): 1 nM; IC50 (L1210): 0.02 nM; IC50 [1]: 0.4 nM; IC50 (MCF7): 300 nM; IC50 (MOLT-4): 0.7 nM; IC50 (OVCAR-3): 4 nM; IC50 (PC-3): 0.2 nM; IC50 (SK-MEL-28): 1 nM; IC50 (SiHa): 0.3 nM; IC50 (BT-549): 1 nM; IC50 [2]: 10 nM; IC50 (786-0): 8 nM
